Measurements reported in patent US9573920B2, “Compound, medicine, anti-inflammatory, cosmetic, food and drink, and method for producing compound” (Amino Up Chemical Co., Ltd., priority 2013, dated 2017).

What was measured:
CINC-3 = test: cytokine/chemokine array (in vitro), CINC-3; format: cell-based, rat; details: (+) IL-1β 1 nM, Pa5′ 100 μM
Method: (§1) In like manner with Example 4, liver cells were isolated from male Wistar rats by a collagenase perfusion method. The isolated liver cells were suspended in a medium (similar to that in Example 4) at 1.2×10^6 cells/mL, seeded in 35 mm plastic dishes (similar to those in Example 4) (1 mL/dish), and cultured in an incubator with 5% CO2 at 37° C. After 5 hours, the medium was replaced with fresh WE free of any serum and hormone, and the cells were cultured overnight until before use of the cells for an experiment.
(§2) On day 1 after the start of the culture, cells were subjected to replacement with fresh WE free of any serum and hormone, and IL-1β (similar to that in Example 4), and Pa5 extracted with methanol in Example 1 or Pa5′ extracted with methanol in Example 2 were added to the medium. The concentrations of IL-1β, Pa5, and Pa5′ in each medium were 1 nM, 20 μM, and 100 μM, respectively (Table 1). Then, the cells were cultured at 37° C., and the medium was collected 3 hours after the start of the culture. The collected medium was centrifuged for 1 minute at 5000 rpm to remove cellular debris, and the supernatant was used in an assay. The supernatant was preserved at −80° C. until performing the assay.
(§3) The productions of the various inflammatory cytokines/chemokines were measured according to an accompanying protocol using Rat Cytokine Antibody Array (R&D Systems) (http://www.rndsystems.com/product_detail_objectname_ratcytokinearray.aspx) capable of detecting 29 kinds of cytokines/chemokines in Proteome Profiler® Antibody Array. In the measurement, 1 mL of the supernatant of the medium obtained as described above was used.
(§4) In the above-described method, the 29 kinds of the cytokines/chemokines can be detected at once, and chemiluminescence on the filter of Proteome Profiler Antibody Array increases in proportion to the amount of each cytokine/chemokine. Thus, the chemiluminescence on the filter of Proteome Profiler Antibody Array was detected with LAS3000mini (GE Healthcare), subjected to densitometry analysis, and converted into a numeric value. The densitometry analysis was carried out with reference to http://www.hm6.aitai.ne.jp/˜maxcat/imageJ/technique.html#gels (the heading of “Analyzing Electrophoretic Gels”) using ImageJ software.

Fractalkine (CX3CL1) = test: cytokine/chemokine array (in vitro), Fractalkine; format: cell-based, rat; details: Pa5′ 100 μM
Method: as §1, §2, §3, §4

sICAM-1 (CD54) = test: cytokine/chemokine array (in vitro), sICAM-1; format: cell-based, rat; details: (+) IL-1β 1 nM, Pa5′ 100 μM
Method: as §1, §2, §3, §4

Thymus Chemokine (CXCL7) = test: cytokine/chemokine array (in vitro), Thymus Chemokine; format: cell-based, rat; details: Pa5′ 100 μM
Method: as §1, §2, §3, §4

[1] = test system: VEGF (VEGF-A/Vasculotropin); test: cytokine/chemokine array (in vitro), VEGF; format: cell-based, rat; details: (+) IL-1β 1 nM, Pa5′ 100 μM
Method: as §1, §2, §3, §4

MIG (CXCL9) = test: cytokine/chemokine array (in vitro), MIG; format: cell-based, rat; details: (+) IL-1β 1 nM, Pa5′ 100 μM
Method: as §1, §2, §3, §4

CINC-2α/β = test: cytokine/chemokine array (in vitro), CINC-2α/β; format: cell-based, rat; details: (+) IL-1β 1 nM, Pa5′ 100 μM
Method: as §1, §2, §3, §4

IL-17 = test: cytokine/chemokine array (in vitro), IL-17; format: cell-based, rat; details: Pa5′ 100 μM
Method: as §1, §2, §3, §4

[2] = test system: nitrogen monoxide (NO) production due to IL-1β; test: NO production inhibitory action in IL-1β-stimulated rat liver cells (Griess method); format: cell-based; details: IL-1β 1 nM, 8 hours
Method: Liver cells were isolated from male Wistar rats (200 to 250 g, Charles River) by a collagenase perfusion method (collagenase: Wako Pure Chemicals). The isolated liver cells were suspended in a medium at 6×10^5 cells/mL, seeded in 35 mm plastic dishes (Falcon Plastic) (2 mL/dish), and cultured in an incubator with 5% CO2 at 37° C. Williams' Medium E (WE) containing 10% newborn calf serum, HEPES (5 mM), penicillin (100 U/mL), streptomycin (0.1 mg/mL), dexamethasone (10 nM), and insulin (10 nM) was used as the medium. After 5 hours, the medium was replaced with fresh WE free of any serum and hormone, and the cells were cultured overnight until before use of the cells for an experiment.
On day 1 after the start of the culture, cells were subjected to replacement with fresh WE free of any serum and hormone, and recombinant rat IL-1β (purity of 97% or more) (PeproTech, Rocky Hill, N.J., USA), and Pa5 extracted with methanol in Example 1 or negletein in the comparative example were added to the medium. In each medium, the concentration of IL-1β was 1 nM, the concentrations of Pa5 were 5, 10, and 20 μM, and the concentrations of negletein were 10, 20, and 40 μM (FIG. 1). The amount of NO in each medium was measured 8 hours after the addition of IL-1β, and Pa5 or negletein by a Griess method (Green L C et al, Anal Biochem 1982; 126: 131-138). More specifically, the amount of nitrite (stable metabolite of NO) in each medium was measured.
Liver cells originated from rats were cultured in like manner with Example 4. On day 1 after the start of the culture, the cells were subjected to replacement with fresh WE free of any serum and hormone, and recombinant rat IL-1β (similar to that in Example 4) and Pa9 extracted with methanol in Example 3 were added to the medium. In each medium, the concentration of IL-1β was 1 nM, and the concentrations of Pa9 were 10 μM, 50 μM, and 100 μM (FIG. 5). The amount of NO in each medium was measured 8 hours after the addition of IL-1β and Pa9 in like manner with Example 4.

[3] = (+) IL-1β 1 nM, 3 hours, (+) alone = 100.0
[4] = (+) IL-1β 1 nM, medium at 3 hours
[5] = rat liver cells, IL-1β 1 nM, 3 hours

In the case of `COc1cc(O)c2c(c1O)OC(c1ccccc1)CC2=O` (stereo not shown) [Pa5′, 5,8-dihydroxy-7-methoxyflavanone], the “CINC-3 (%)” value (CINC-3; 3 hours, (+) alone = 100.0) is reported as 60.8%, the “CINC-3 chemiluminescence densitometry, Average” value (CINC-3; medium at 3 hours) is reported as 1846.9 and the “CINC-3 chemiluminescence densitometry, first value” (CINC-3; medium at 3 hours) is reported as 1849.2. The “CINC-3 chemiluminescence densitometry, second value” (CINC-3; medium at 3 hours) was 1844.7, the “Fractakine (CX3CL1) (%)” value (Fractalkine (CX3CL1); [3]) was 42.7% and the “Fractakine (CX3CL1) chemiluminescence densitometry, Average” value (Fractalkine (CX3CL1); [4]) was 310.1. The “Fractakine (CX3CL1) chemiluminescence densitometry, first value” (Fractalkine (CX3CL1); [4]) was 287.0, the “Fractakine (CX3CL1) chemiluminescence densitometry, second value” (Fractalkine (CX3CL1); [4]) was 333.3 and the “induction of fractalkine (CX3CL1)” value (Fractalkine (CX3CL1); [5]) was “strongly inhibit”. For the same molecule, the “sICAM-1 (CD54) (%)” value (sICAM-1 (CD54); 3 hours, (+) alone = 100.0) was 68.4%, the “sICAM-1 (CD54) chemiluminescence densitometry, Average” value (sICAM-1 (CD54); medium at 3 hours) was 257.3 and the “sICAM-1 (CD54) chemiluminescence densitometry, first value” (sICAM-1 (CD54); medium at 3 hours) was 250.3. For the same molecule, the “sICAM-1 (CD54) chemiluminescence densitometry, second value” (sICAM-1 (CD54); medium at 3 hours) was 264.3, the “Thymus Chemokine (CXCL7) (%)” value (Thymus Chemokine (CXCL7); [3]) was 23.1% and the “Thymus Chemokine (CXCL7) chemiluminescence densitometry, Average” value (Thymus Chemokine (CXCL7); [4]) was 73.0. The “Thymus Chemokine (CXCL7) chemiluminescence densitometry, first value” (Thymus Chemokine (CXCL7); [4]) was 62.8, the “Thymus Chemokine (CXCL7) chemiluminescence densitometry, second value” (Thymus Chemokine (CXCL7); [4]) was 83.2 and the “induction of thymus chemokine (CXCL7)” value (Thymus Chemokine (CXCL7); [5]) was “strongly inhibit”. The “VEGF (VEGF-A/Vasculotropin) (%)” value ([1]; 3 hours, (+) alone = 100.0) was 109.7%, the “VEGF (VEGF-A/Vasculotropin) chemiluminescence densitometry, Average” value ([1]; medium at 3 hours) was 896.7 and the “VEGF (VEGF-A/Vasculotropin) chemiluminescence densitometry, first value” ([1]; medium at 3 hours) was 875.1. The “VEGF (VEGF-A/Vasculotropin) chemiluminescence densitometry, second value” ([1]; medium at 3 hours) was 918.4, the “MIG (CXCL9) (%)” value (MIG (CXCL9); 3 hours, (+) alone = 100.0) was 86.8% and the “MIG (CXCL9) chemiluminescence densitometry, Average” value (MIG (CXCL9); medium at 3 hours) was 666.4. For the same molecule, the “MIG (CXCL9) chemiluminescence densitometry, first value” (MIG (CXCL9); medium at 3 hours) was 672.8, the “MIG (CXCL9) chemiluminescence densitometry, second value” (MIG (CXCL9); medium at 3 hours) was 660.1 and the “CINC-2α/β (%)” value (CINC-2α/β; 3 hours, (+) alone = 100.0) was 96.8%. The “CINC-2α/β chemiluminescence densitometry, Average” value (CINC-2α/β; medium at 3 hours) was 5839.6, the “CINC-2α/β chemiluminescence densitometry, first value” (CINC-2α/β; medium at 3 hours) was 5944.2 and the “CINC-2α/β chemiluminescence densitometry, second value” (CINC-2α/β; medium at 3 hours) was 5735.0. The “IL-17 (%)” value (IL-17; [3]) was 29.6%, the “IL-17 chemiluminescence densitometry, Average” value (IL-17; [4]) was 36.7 and the “IL-17 chemiluminescence densitometry, first value” (IL-17; [4]) was 6.1. The “IL-17 chemiluminescence densitometry, second value” (IL-17; [4]) was 67.2 and the “induction of IL-17” value (IL-17; [5]) was “strongly inhibit”.

In the case of `O=c1ccc2cc(O)c(O)cc2o1` [Pa9, esculetin], the IC50 ([2]; nitrite by Griess method, read-out: IC50 value (drug concentration at NO production of 50%)) is reported as 32 µM and the “production of NO due to IL-1β” value ([2]; Pa9 10, 50, 100 μM) is reported as “dose-dependently inhibited”.
